Laboratory results: paper PMC8909834, “An Orally Bioavailable and Highly Efficacious Inhibitor of CDK9/FLT3 for the Treatment of Acute Myeloid Leukemia” (Cancers, 2022)

Experiments:
NB4 = assay: Cell viability assay (resazurin); format: cell-based; details: Homo sapiens, NB-4; NB4, 72 h, mean ± SD
Protocol: (§1) Cell culture. MV4-11, HL60, K-562, THP-1, MO91, and U937 cell lines were from the ATCC (Rockville, MD, USA); MOLM-13, NB4, and PL21 cell lines were from the DSMZ (Braunschweig, Germany); and Jurkat cells were from the ECACC (Salisbury, UK). All cells were cultured in RPMI medium (Sigma-Aldrich) supplemented with 10% to 20% of heat-inactivated fetal bovine serum (Sigma-Aldrich), and cells were maintained at 37 °C, 5% CO2, and 95% humidity. All the cell lines were tested to be mycoplasma-negative using MycoAlert^TM mycoplasma detection kit (Lonza, Derrimut, VIC, Australia).
(§2) Cell viability assay. The viability of leukemia cell lines after incubation with CDDD11-8 was determined by their ability to reduce resazurin, as described previously. Cells (5 × 10^3) were seeded into 96-well plates (Corning Inc., Corning, NY, USA) and incubated overnight at 37 °C. Subsequently, they were incubated with CDDD11-8 (concentrations ranging from 0.003 µM to 31.6 µM; using three-fold serial dilutions) or DMSO (final concentration of 0.1%) for 72 h. Afterwards, cells were incubated with 20 µL of resazurin (0.1 mg/mL in PBS) for 4 h at 37 °C under 5% CO2, and the fluorescence intensities were measured using an EnVision® multilabel plate reader at 570 nm (excitation)/585 nm (emission). The concentration required to inhibit cellular growth by 50% (GI50) was determined using the same non-linear regression model as shown above, with Ar (%) = % cell viability, and IC50 replaced with GI50.

U937 = assay: Cell viability assay (resazurin); format: cell-based; details: Homo sapiens, U-937; U937, 72 h, mean ± SD
Protocol: as §1, §2

MOLM-13 = assay: Cell viability assay (resazurin); format: cell-based; details: MOLM-13, 72 h, mean ± SD
Protocol: as §1, §2

THP-1 = assay: Cell viability assay (resazurin); format: cell-based; details: THP-1, 72 h, mean ± SD
Protocol: as §1, §2

JURKAT = assay: Cell viability assay (resazurin); format: cell-based; details: Homo sapiens, 72 h, mean ± SD
Protocol: as §1, §2

K-562 = assay: Cell viability assay (resazurin); format: cell-based; details: Homo sapiens, K562; K-562, 72 h, mean ± SD
Protocol: as §1, §2

HL60 = assay: Cell viability assay (resazurin); format: cell-based; details: Homo sapiens, HL-60; HL60, 72 h, mean ± SD
Protocol: as §1, §2

PL21 = assay: Cell viability assay (resazurin); format: cell-based; details: PL21, 72 h, mean ± SD
Protocol: as §1, §2

[1] = Dissociation constant by PH metric assay; format: physicochemical
[2] = Maximum tolerated dose in non-tumor bearing mice; format: in vivo
Protocol: In vivo efficacy of CDDD11-8 against AML xenografts in mice. The maximum tolerated dose (MTD) of CDDD11-8 was determined in non-tumor bearing female BALB/c nude (nu/nu) mice (n = 3). […] Our proposed maximum dose of CDDD11-8 was 150 mg/kg once daily for seven days. […] All the animals received 28 doses of vehicle or CDDD11-8 at 75 or 125 mg/kg strength. […] The tumor regression was maintained over the dosing period. On day 29, the tumors in the 75 mg/kg treated group had recommenced growth to variable degrees (Supplementary Table S3). […] On day 29, one and three mice from the 75 and 125 mg/kg CDDD11-8 treated groups, respectively, had unmeasurable tumor size (zero tumor volume).

`Cc1cnc(N[C@H]2CC[C@H](N)CC2)nc1-c1cnc2ccc(-c3ccccc3)cn12` [CDDD11-8] showed a GI50 (NB4) of 473 ± 107 nM, a GI50 (U937) of 713 ± 93 nM and a GI50 (MOLM-13; Homo sapiens) of less than 100 nM. It also gave a GI50 (MOLM-13) of 70 ± 20 nM, a GI50 (THP-1; Homo sapiens) of 460 nM and a GI50 (THP-1) of 459 ± 40 nM. For the same compound, the GI50 (JURKAT) was 599 ± 90 nM, the GI50 (K-562) was 1500 ± 47 nM and the GI50 (HL60) was 475 ± 25 nM. It also gave a GI50 (PL21) of 339 ± 34 nM, a GI50 (PL21; PL-21, 72 h) of 340 nM and a pKa ([1]; first of three values) of 2.75. It also gave a pKa ([1]; second of three values) of 4.95, a pKa ([1]; third of three values) of 9.89 and an MTD at 7 days ([2]; female, BALB/c nude (nu/nu), mouse, in vivo, oral, once daily for seven days) of 150 mg/kg. The body weight loss ([2]; oral 200 mg/kg, one mouse after five days, the rest after seven days) was greater than 15% and the “clinical signs of toxicity / weight loss” value ([2]; up to oral 150 mg/kg once daily for 7 days) was “no overt clinical signs of toxicity or significant weight loss”.
